Assay results taken from ChEMBL document CHEMBL4130457, “Discovery of AZD-2098 and AZD-1678, Two Potent and Bioavailable CCR4 Receptor Antagonists” (ACS Med Chem Lett, 2017).
Values after ≈ are worked out from the molar mass of the structure shown. Active and inactive are the calls of the source. The rule behind the calls is not given here.

Experiments:
[1] = Lipophilicity, log D of the compound; type: physicochemical; settings: octanol/water
[2] = Solubility of the compound; type: physicochemical
Hepatocyte = assay: Stability in human hepatocytes assessed per million cells
[3] = Antagonist activity at rat CCR4
[4] = target: T1, C-C chemokine receptor type 4 (Mus musculus, UniProt P51680); assay: Antagonist activity at mouse CCR4; type: functional
T1 sequence (P51680 whole entry): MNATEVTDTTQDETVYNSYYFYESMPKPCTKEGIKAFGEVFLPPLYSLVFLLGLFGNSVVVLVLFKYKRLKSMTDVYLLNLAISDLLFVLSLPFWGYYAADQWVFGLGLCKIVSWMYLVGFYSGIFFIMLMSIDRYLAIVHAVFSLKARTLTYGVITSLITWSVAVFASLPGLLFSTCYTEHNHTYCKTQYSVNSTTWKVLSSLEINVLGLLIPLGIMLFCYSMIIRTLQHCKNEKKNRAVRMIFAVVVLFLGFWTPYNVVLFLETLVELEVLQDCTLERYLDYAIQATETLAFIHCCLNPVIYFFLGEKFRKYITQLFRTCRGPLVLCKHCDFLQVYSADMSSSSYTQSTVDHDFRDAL

[5] = target: T2, C-C chemokine receptor type 4 (Homo sapiens, UniProt P51679); assay: Antagonist activity at recombinant human CCR4 expressed in CHO-K1 cells assessed as inhibition of CCL22 induced Ca2+ mobilization after 2 hrs by FMAT based fluorescence assay; type: functional, cell-based
T2 sequence (P51679 whole entry): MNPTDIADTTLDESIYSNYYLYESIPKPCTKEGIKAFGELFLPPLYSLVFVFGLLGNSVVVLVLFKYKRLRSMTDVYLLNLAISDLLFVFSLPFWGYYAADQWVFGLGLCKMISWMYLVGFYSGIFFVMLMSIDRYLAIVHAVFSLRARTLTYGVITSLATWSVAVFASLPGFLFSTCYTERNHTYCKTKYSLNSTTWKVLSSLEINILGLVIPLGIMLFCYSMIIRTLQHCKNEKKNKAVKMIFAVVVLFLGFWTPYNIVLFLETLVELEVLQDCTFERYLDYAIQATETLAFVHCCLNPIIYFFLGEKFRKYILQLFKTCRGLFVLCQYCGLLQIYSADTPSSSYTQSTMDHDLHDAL

[6] = target: T3, C-X-C chemokine receptor type 1 (Homo sapiens) (UniProt P25024); assay: Antagonist activity at CXCR1 (unknown origin) at 10 uM; type: functional
T3 sequence (whole entry): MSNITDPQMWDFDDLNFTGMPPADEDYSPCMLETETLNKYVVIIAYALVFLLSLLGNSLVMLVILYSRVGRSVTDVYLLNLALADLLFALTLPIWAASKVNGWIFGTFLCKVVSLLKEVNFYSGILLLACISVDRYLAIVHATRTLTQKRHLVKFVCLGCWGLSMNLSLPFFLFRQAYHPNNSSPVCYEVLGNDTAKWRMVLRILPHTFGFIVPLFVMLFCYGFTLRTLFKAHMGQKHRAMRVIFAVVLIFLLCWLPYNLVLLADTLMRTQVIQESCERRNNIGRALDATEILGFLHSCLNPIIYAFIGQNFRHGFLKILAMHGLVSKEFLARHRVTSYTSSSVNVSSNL

[7] = target: T4, C-C chemokine receptor type 1 (Homo sapiens) (UniProt P32246); assay: Antagonist activity at CCR1 (unknown origin) at 10 uM; type: functional
T4 sequence (whole entry): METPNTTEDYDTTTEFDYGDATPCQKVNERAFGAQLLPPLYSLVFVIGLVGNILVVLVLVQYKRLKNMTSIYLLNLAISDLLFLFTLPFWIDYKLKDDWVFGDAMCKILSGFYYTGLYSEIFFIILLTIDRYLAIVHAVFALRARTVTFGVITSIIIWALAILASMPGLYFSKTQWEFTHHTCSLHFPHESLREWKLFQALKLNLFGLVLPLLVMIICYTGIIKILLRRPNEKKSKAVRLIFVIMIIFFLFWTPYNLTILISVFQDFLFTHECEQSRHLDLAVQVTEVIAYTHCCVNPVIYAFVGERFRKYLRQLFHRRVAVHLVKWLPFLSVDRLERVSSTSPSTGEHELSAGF

[8] = target: C-C chemokine receptor type 2 (Homo sapiens) (UniProt P41597); assay: Antagonist activity at CCR2b (unknown origin) at 10 uM
Sequence of C-C chemokine receptor type 2 (Homo sapiens) (P41597 whole entry, looked up): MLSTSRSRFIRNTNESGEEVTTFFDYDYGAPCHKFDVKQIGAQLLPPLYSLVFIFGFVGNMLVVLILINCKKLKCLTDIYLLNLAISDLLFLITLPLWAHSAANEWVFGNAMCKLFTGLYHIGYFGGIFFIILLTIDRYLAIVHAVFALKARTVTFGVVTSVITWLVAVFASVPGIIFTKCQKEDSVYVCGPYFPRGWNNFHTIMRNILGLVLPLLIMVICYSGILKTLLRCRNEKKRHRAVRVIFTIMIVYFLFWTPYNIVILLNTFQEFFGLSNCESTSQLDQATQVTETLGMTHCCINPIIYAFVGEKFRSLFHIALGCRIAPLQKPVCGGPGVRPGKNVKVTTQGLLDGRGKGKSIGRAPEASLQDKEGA

[9] = target: C-C chemokine receptor type 8 (Homo sapiens) (UniProt P51685); assay: Antagonist activity at CCR8 (unknown origin) at 10 uM; type: functional
Sequence of C-C chemokine receptor type 8 (Homo sapiens) (P51685 whole entry): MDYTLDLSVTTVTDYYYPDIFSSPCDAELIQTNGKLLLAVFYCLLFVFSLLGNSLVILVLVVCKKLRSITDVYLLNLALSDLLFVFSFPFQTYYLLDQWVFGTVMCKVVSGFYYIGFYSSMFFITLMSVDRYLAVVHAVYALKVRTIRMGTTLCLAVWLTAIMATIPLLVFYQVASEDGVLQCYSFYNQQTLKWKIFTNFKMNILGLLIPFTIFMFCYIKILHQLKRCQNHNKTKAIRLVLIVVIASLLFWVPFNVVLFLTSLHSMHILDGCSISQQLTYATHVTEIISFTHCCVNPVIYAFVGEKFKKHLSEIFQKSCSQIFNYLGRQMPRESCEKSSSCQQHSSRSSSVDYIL

[10] = Lipophilicity, log P of the compound; type: physicochemical; settings: octanol/water
[11] = target: T5, C-C chemokine receptor type 4 (Canis lupus familiaris, UniProt Q8MJW8); assay: Antagonist activity at dog CCR4
T5 sequence (Q8MJW8 whole entry): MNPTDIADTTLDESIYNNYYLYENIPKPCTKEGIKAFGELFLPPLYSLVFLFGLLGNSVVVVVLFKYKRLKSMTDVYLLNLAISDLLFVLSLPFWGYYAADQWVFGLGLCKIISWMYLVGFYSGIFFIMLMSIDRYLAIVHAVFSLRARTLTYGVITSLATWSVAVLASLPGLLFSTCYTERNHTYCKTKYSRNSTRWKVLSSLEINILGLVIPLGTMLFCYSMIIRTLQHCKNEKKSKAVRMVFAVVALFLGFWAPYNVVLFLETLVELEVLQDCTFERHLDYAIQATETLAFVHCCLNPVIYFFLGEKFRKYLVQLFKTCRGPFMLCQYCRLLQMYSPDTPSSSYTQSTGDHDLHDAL

[12] = Clearance in rat at 9 umol/kg, po or 3 umol/kg, iv; type: ADME, organism-based; settings: in vivo
[13] = Clearance in dog at 9 umol/kg, po or 3 umol/kg, iv; type: ADME, organism-based, Canis lupus familiaris; settings: in vivo
[14] = Oral bioavailability in dog at 9 umol/kg; type: ADME, organism-based, Canis lupus familiaris; settings: in vivo
[15] = target: T2, C-C chemokine receptor type 4; assay: Antagonist activity at human CCR4 expressed in CHO cells coexpressing CD4+ assessed as inhibition of CCL22 induced Ca2+ mobilization; type: functional, cell-based
[16] = target: T6, C-C chemokine receptor type 4 (Homo sapiens) (UniProt P51679); assay: Agonist activity at CCR4 (unknown origin) up to 10 uM; type: functional
T6 sequence (whole entry): T2 sequence (P51679 whole entry)

Rattus norvegicus = assay: Terminal trough concentration in OVA-induced Brown Norway rat plasma at 0.22 to 2.2 umol/kg, po bid measured 12 hrs post last dose; type: ADME, organism-based; settings: in vivo, BLD = below limit of detection
[17] = Terminal trough concentration in OVA-induced Brown Norway rat plasma at 3 umol/kg, po bid measured 12 hrs post last dose; type: ADME, organism-based; settings: read-out: Cmin
[18] = Terminal trough concentration in OVA-induced Brown Norway rat plasma at 7.5 umol/kg, po bid measured 12 hrs post last dose; type: ADME, organism-based; settings: read-out: Cmin
[19] = Terminal trough concentration in OVA-induced Brown Norway rat plasma at 15 umol/kg, po bid measured 12 hrs post last dose; type: ADME, organism-based; settings: read-out: Cmin
[20] = Ratio of free plasma concentration in Brown Norway rat at 3 umol/kg to pIC50 for recombinant human CCR4 expressed in CHO-K1 cells; type: ADME, cell-based; settings: in vivo
[21] = Ratio of free plasma concentration in Brown Norway rat at 7.5 umol/kg to pIC50 for recombinant human CCR4 expressed in CHO-K1 cells; type: ADME, cell-based; settings: in vivo
[22] = Ratio of free plasma concentration in Brown Norway rat at 15 umol/kg to pIC50 for recombinant human CCR4 expressed in CHO-K1 cells; type: ADME, cell-based; settings: in vivo

SMILES: COc1nccnc1NS(=O)(=O)c1cccc(Cl)c1Cl
- logD [1]: 0.35
- solubility [2]: 1500 µg/mL (≈ 4.49 mM)
- Stability (Hepatocyte): < 0.2 uL/ml
- pIC50 [3]: 8
- IC50 [4]: 10 nM
- IC50 [5]: 15.8 nM
- Activity [6]: inactive
- Activity [7]: inactive
- Activity [8]: inactive
- Activity [9]: inactive
- logP [10]: 2.5
- IC50 [11]: 25.1 nM
- clearance [12]: 2 mL/min/kg
- clearance [13]: 1.5 mL/min/kg
- bioavailability [14]: 100%
- IC50 [15]: 31.6 nM
- Activity [16]: inactive
- Cmin (Rattus norvegicus): Bld
- concentration at 12 h [17]: 33 nM
- concentration at 12 h [18]: 140 nM
- concentration at 12 h [19]: 490 nM
- Ratio [20]: 0.6
- Ratio [21]: 3
- Ratio [22]: 9
